Active and inactive are the calls of the source. No cut-off for these calls is given here.
Key:
[1] = system: PC-3; assay: Growth inhibition of human PC3 cells after 48 hrs by SRB assay; format: functional; settings: PC-3, 48 h
[2] = system: DU-145; assay: Growth inhibition of human DU145 cells after 48 hrs by SRB assay; format: functional; settings: DU-145, 48 h
[3] = system: MCF7; assay: Growth inhibition of human MCF7 cells after 48 hrs by SRB assay; format: functional; settings: MCF7, 48 h
[4] = system: MDA-MB-231; assay: Growth inhibition of human MDA-MB-231 cells after 48 hrs by SRB assay; format: functional; settings: MDA-MB-231, 48 h
[5] = Growth inhibition of human Hs578T cells after 48 hrs by SRB assay; format: functional; settings: Hs-578T
[6] = Growth inhibition of human BT549 cells after 48 hrs by SRB assay; format: functional; settings: BT-549, 48 h
[7] = system: T47D; assay: Growth inhibition of human T47D cells after 48 hrs by SRB assay; format: functional
[8] = system: MDA-MB-468; assay: Growth inhibition of human MDA-MB-468 cells after 48 hrs by SRB assay; format: functional; settings: MDA-MB-468, 48 h
[9] = Growth inhibition of human LOXIMVI cells after 48 hrs by SRB assay; format: functional; settings: LOX IMVI
[10] = system: Malme-3M; assay: Growth inhibition of human MALME-3M cells after 48 hrs by SRB assay; format: functional
[11] = system: M14; assay: Growth inhibition of human M14 cells after 48 hrs by SRB assay; format: functional; settings: M14, 48 h
[12] = system: MDA-MB-435; assay: Growth inhibition of human MDA-MB-435 cells after 48 hrs by SRB assay; format: functional; settings: MDA-MB-435, 48 h
[13] = system: SK-MEL-2; assay: Growth inhibition of human SK-MEL-2 cells after 48 hrs by SRB assay; format: functional; settings: SK-MEL-2, 48 h
[14] = system: SK-MEL-28; assay: Growth inhibition of human SK-MEL-28 cells after 48 hrs by SRB assay; format: functional; settings: SK-MEL-28, 48 h
[15] = system: SK-MEL-5; assay: Growth inhibition of human SK-MEL-5 cells after 48 hrs by SRB assay; format: functional; settings: SK-MEL-5, 48 h
[16] = Growth inhibition of human UACC62 cells after 48 hrs by SRB assay; format: functional; settings: UACC-62, 48 h
[17] = Growth inhibition of human UACC257 cells after 48 hrs by SRB assay; format: functional; settings: UACC-257, 48 h
[18] = system: MCF7; assay: Growth inhibition of human MCF7 cells assessed as cell viability at 4 uM after 24 hrs by MTT assay; format: functional, cell-based
[19] = system: MCF7; assay: Cell cycle arrest in human MCF7 cells assessed as accumulation at G0/G1 phase at 4 uM after 24 hrs by propidium iodide staining-based flow cytometry (reference value: 64.04%); format: functional
[20] = system: MCF7; assay: Cell cycle arrest in human MCF7 cells assessed as accumulation at S phase at 4 uM after 24 hrs by propidium iodide staining-based flow cytometry (reference value: 20.17%); format: functional
[21] = system: MCF7; assay: Cell cycle arrest in human MCF7 cells assessed as accumulation at G2/M phase at 4 uM after 24 hrs by propidium iodide staining-based flow cytometry (reference value: 15.79%); format: functional
[22] = system: CCRF-CEM; assay: Growth inhibition of human CCRF-CEM cells after 48 hrs by SRB assay; format: functional
[23] = system: HL-60(TB); assay: Growth inhibition of human HL-60(TB) cells after 48 hrs by SRB assay; format: functional; settings: HL-60, 48 h
[24] = system: K562; assay: Growth inhibition of human K562 cells after 48 hrs by SRB assay; format: functional; settings: K562, 48 h
[25] = Growth inhibition of human MOLT4 cells after 48 hrs by SRB assay; format: functional; settings: MOLT-4, 48 h
[26] = system: SR; assay: Growth inhibition of human SR cells after 48 hrs by SRB assay; format: functional
[27] = system: RPMI-8226; assay: Growth inhibition of human RPMI8226 cells after 48 hrs by SRB assay; format: functional; settings: RPMI-8226, 48 h
[28] = system: A549; assay: Growth inhibition of human A549 cells after 48 hrs by SRB assay; format: functional; settings: A549, 48 h
[29] = Growth inhibition of human EKVX cells after 48 hrs by SRB assay; format: functional
[30] = system: HOP-62; assay: Growth inhibition of human HOP62 cells after 48 hrs by SRB assay; format: functional; settings: HOP-62, 48 h
[31] = Growth inhibition of human HOP92 cells after 48 hrs by SRB assay; format: functional; settings: HOP-92, 48 h
[32] = system: NCI-H226; assay: Growth inhibition of human NCI-H226 cells after 48 hrs by SRB assay; format: functional; settings: NCI-H226, 48 h
[33] = system: NCI-H23; assay: Growth inhibition of human NCI-H23 cells after 48 hrs by SRB assay; format: functional; settings: NCI-H23, 48 h
[34] = system: NCI-H322M; assay: Growth inhibition of human NCI-H322M cells after 48 hrs by SRB assay; format: functional
[35] = system: NCI-H460; assay: Growth inhibition of human NCI-H460 cells after 48 hrs by SRB assay; format: functional; settings: NCI-H460, 48 h
[36] = system: NCI-H522; assay: Growth inhibition of human NCI-H522 cells after 48 hrs by SRB assay; format: functional; settings: NCI-H522, 48 h
[37] = system: COLO 205; assay: Growth inhibition of human COLO205 cells after 48 hrs by SRB assay; format: functional; settings: COLO 205, 48 h
[38] = Growth inhibition of human HCC2998 cells after 48 hrs by SRB assay; format: functional; settings: HCC 2998, 48 h
[39] = system: HCT-116; assay: Growth inhibition of human HCT116 cells after 48 hrs by SRB assay; format: functional; settings: HCT-116, 48 h
[40] = Growth inhibition of human HCT15 cells after 48 hrs by SRB assay; format: functional; settings: HCT-15, 48 h
[41] = system: HT-29; assay: Growth inhibition of human HT-29 cells after 48 hrs by SRB assay; format: functional; settings: HT-29, 48 h
[42] = system: KM12; assay: Growth inhibition of human KM12 cells after 48 hrs by SRB assay; format: functional; settings: KM12, 48 h
[43] = system: SW-620; assay: Growth inhibition of human SW620 cells after 48 hrs by SRB assay; format: functional; settings: SW-620, 48 h
[44] = system: SF-268; assay: Growth inhibition of human SF268 cells after 48 hrs by SRB assay; format: functional; settings: SF-268, 48 h
[45] = Growth inhibition of human SF295 cells after 48 hrs by SRB assay; format: functional; settings: SF-295, 48 h
[46] = Growth inhibition of human SF539 cells after 48 hrs by SRB assay; format: functional; settings: SF-539, 48 h
[47] = system: SNB-19; assay: Growth inhibition of human SNB19 cells after 48 hrs by SRB assay; format: functional; settings: SNB-19, 48 h
[48] = system: SNB-75; assay: Growth inhibition of human SNB75 cells after 48 hrs by SRB assay; format: functional; settings: SNB-75, 48 h
[49] = system: U-251; assay: Growth inhibition of human U251 cells after 48 hrs by SRB assay; format: functional; settings: U-251, 48 h
[50] = system: IGROV-1; assay: Growth inhibition of human IGROV1 cells after 48 hrs by SRB assay; format: functional; settings: IGROV-1, 48 h
[51] = Growth inhibition of human OVCAR3 cells after 48 hrs by SRB assay; format: functional; settings: OVCAR-3, 48 h
[52] = Growth inhibition of human OVCAR4 cells after 48 hrs by SRB assay; format: functional; settings: OVCAR-4, 48 h
[53] = Growth inhibition of human OVCAR5 cells after 48 hrs by SRB assay; format: functional; settings: OVCAR-5, 48 h
[54] = Growth inhibition of human OVCAR8 cells after 48 hrs by SRB assay; format: functional; settings: OVCAR-8, 48 h
[55] = Growth inhibition of human NCI-ADR-RES cells after 48 hrs by SRB assay; format: functional
[56] = system: SK-OV-3; assay: Growth inhibition of human SKOV3 cells after 48 hrs by SRB assay; format: functional; settings: SK-OV-3, 48 h
[57] = system: 786-0; assay: Growth inhibition of human 786-0 cells after 48 hrs by SRB assay; format: functional; settings: 786-0, 48 h
[58] = system: A498; assay: Growth inhibition of human A498 cells after 48 hrs by SRB assay; format: functional; settings: A498, 48 h
[59] = system: ACHN; assay: Growth inhibition of human ACHN cells after 48 hrs by SRB assay; format: functional
[60] = system: CAKI-1; assay: Growth inhibition of human Caki1 cells after 48 hrs by SRB assay; format: functional; settings: CAKI-1, 48 h
[61] = Growth inhibition of human RXF393 cells after 48 hrs by SRB assay; format: functional; settings: RXF 393, 48 h
[62] = system: SN12C; assay: Growth inhibition of human SN12C cells after 48 hrs by SRB assay; format: functional
[63] = system: TK-10; assay: Growth inhibition of human TK10 cells after 48 hrs by SRB assay; format: functional; settings: TK-10, 48 h
[64] = Growth inhibition of human UO31 cells after 48 hrs by SRB assay; format: functional; settings: UO-31, 48 h

COc1cc(C(=O)/C=C/c2c(C(F)(F)F)nc3ccccn23)cc(OC)c1OC
GI50 [1]: 3800 nM
GI50 [2]: 1610 nM
GI50 [3]: 1440 nM
GI50 [4]: 4590 nM
GI50 [5]: 3270 nM
GI50 [6]: 1640 nM
GI50 [7]: 3520 nM
GI50 [8]: 2120 nM
GI50 [9]: 1660 nM
GI50 [10]: 1570 nM
GI50 [11]: 1820 nM
GI50 [12]: 2260 nM
GI50 [13]: 2430 nM
GI50 [14]: 1930 nM
GI50 [15]: 1620 nM
GI50 [16]: 2050 nM
GI50 [17]: 1660 nM
inhibition [18]: Active
Activity [19]: 95.24%
Activity [20]: 4.1%
Activity [21]: 0.66%
GI50 [22]: 4150 nM
GI50 [23]: 4120 nM
GI50 [24]: 2830 nM
GI50 [25]: 3730 nM
GI50 [26]: 2910 nM
GI50 [27]: 1980 nM
GI50 [28]: 4040 nM
GI50 [29]: 2370 nM
GI50 [30]: 2970 nM
GI50 [31]: 2650 nM
GI50 [32]: 3550 nM
GI50 [33]: 1510 nM
GI50 [34]: 1660 nM
GI50 [35]: 2010 nM
GI50 [36]: 1770 nM
GI50 [37]: 2110 nM
GI50 [38]: 1830 nM
GI50 [39]: 1260 nM
GI50 [40]: 2100 nM
GI50 [41]: 1930 nM
GI50 [42]: 1730 nM
GI50 [43]: 1680 nM
GI50 [44]: 1640 nM
GI50 [45]: 1990 nM
GI50 [46]: 1630 nM
GI50 [47]: 1930 nM
GI50 [48]: 1760 nM
GI50 [49]: 1290 nM
GI50 [50]: 2230 nM
GI50 [51]: 1830 nM
GI50 [52]: 4100 nM
GI50 [53]: 1980 nM
GI50 [54]: 3390 nM
GI50 [55]: 1410 nM
GI50 [56]: 4040 nM
GI50 [57]: 1720 nM
GI50 [58]: 2400 nM
GI50 [59]: 1950 nM
GI50 [60]: 1820 nM
GI50 [61]: 1870 nM
GI50 [62]: 2090 nM
GI50 [63]: 2090 nM
GI50 [64]: 1490 nM

From ChEMBL document CHEMBL3217491, “Design, synthesis and biological evaluation of imidazopyridine/pyrimidine-chalcone derivatives as potential anticancer agents” (2010)
